Measured values: PMC7865522, “Analyzing Kinase Similarity in Small Molecule and Protein Structural Space to Explore the Limits of Multi-Target Screening” (Molecules, 2021)
“And” between values parts separate entries of the source, which are not always exact repeats. Identical values can stand only once.

Experiments:
Assay type in all cases: biochemical
PI3K = PI3K (Homo sapiens, UniProt P42336); assay: Eurofins in vitro kinase inhibition assay (HTRF, PIP3 displacement); parameters: purchased Eurofins Cerep (contract assay); conditions: compound 20 µM; mean (SD); above 50% significant, 25-50% weak
Outline: (§1)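 Single-concentration screen at 20 µM. Substrate-analog phosphorylation with ATP for three kinases; HTRF PIP3 displacement for PI3K. Results reported as mean (SD) percentage inhibition relative to control.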

EGFR-wt = biological target: T1, EGFR-wt (Homo sapiens, UniProt P00533); assay: HTRF KinEASE-TK IC50 determination (Rauh Lab); conditions: ATP at Km (9.5 µM), racemate tested, read-out: IC50 ± s.d., EGFR
T1 construct: purchased Carna Biosciences lot13CBS-0005K
Method: (§2) IC 50 determinations for EGFR, its mutants and ErbB2-insYVMA (Carna Biosciences, lot13CBS-0005K for EGFR-wt; Carna, lot13CBS-0537B for EGFR-L858R; Carna, lot12CBS-0765B for EGFR-L858R/T790M; and ProQinase, lot1525-0000-1/003 for ErbB2-insYVMA) were performed with the HTRF KinEASE-TK assay from Cisbio according to the manufacturer’s instructions. Briefly, the amount of kinase in each reaction well was set to 0.60 ng EGFR-wt (0.67 nM), 0.10 ng EGFR-L858R (0.11 nM), 0.07 ng EGFR-T790M/L858R (0.08 nM), or 0.01 ng ErbB2-insYVMA (0.01 nM). An artificial substrate peptide (TK-substrate from Cisbio) was phosphorylated by EGFR or ErbB2. After completion of the reaction (reaction times: 25 min for EGFR-wt, 15 min for L858R, 20 min for L858R/T790M, and 40 min for ErbB2-insYVMA), the reaction was stopped by addition of buffer containing EDTA as well as an anti-phosphotyrosine antibody labeled with europium cryptate and streptavidin labeled with the fluorophore XL665. FRET between europium cryptate and XL665 was measured after an additional hour of incubation to quantify the phosphorylation of the substrate peptide. […] Kinase and inhibitor were preincubated for 30 min before the reaction was started by addition of ATP and substrate peptide. An EnVision multimode plate reader (Perkin Elmer) was used to measure the fluorescence of the samples at 620 nm (Eu ^3+ -labeled antibody) and 665 nm (XL665-labeled streptavidin) 50 µs after excitation at 320 nm. The quotient of both intensities for reactions made with eight different inhibitor concentrations was then analyzed using the Quattro Software Suite for IC 50 -determination. Each reaction was performed in duplicate, and at least three independent determinations of each IC 50 were made.

ErbB2-insYVMA = biological target: T2, ErbB2-insYVMA (Homo sapiens, UniProt P04626, INS775YVMA); assay: HTRF KinEASE-TK IC50 determination (Rauh Lab); conditions: ATP at Km (6 µM); racemate tested; read-out: IC50 ± s.d., ErbB2insYVMA
T2 construct: purchased ProQinase lot1525-0000-1/003
Method: as §2

EGFR-L858R/T790M = biological target: T3, EGFR-L858R/T790M (Homo sapiens, UniProt P00533, L858R/T790M); assay: HTRF KinEASE-TK IC50 determination (Rauh Lab); conditions: ATP at Km (4 µM); read-out: IC50, EGFR L858R/T790M double mutant
T3 construct: purchased Carna Biosciences lot12CBS-0765B
Method: as §2

EGFR-L858R = biological target: T4, EGFR-L858R (Homo sapiens, UniProt P00533, L858R); assay: HTRF KinEASE-TK IC50 determination (Rauh Lab); conditions: ATP at Km (9 µM); read-out: IC50, EGFR L858R mutant
T4 construct: purchased Carna Biosciences lot13CBS-0537B
Method: as §2

BRAF = biological target: T5, BRAF (Homo sapiens, UniProt P15056); assay: Eurofins in vitro kinase inhibition assay; conditions: 20 µM; Table 3; read-out: % inhib. at 20 µM, BRAF (Eurofins), printed as symbol
T5 construct: purchased DiscoverX (KINOMEscan service); host or cells: E. coli BL21-derived host (T7 phage) or HEK-293
Outline: as §1

ErbB2 = biological target: T6, ErbB2 (Homo sapiens, UniProt P04626); assay: Eurofins in vitro kinase inhibition assay
T6 construct: purchased DiscoverX (KINOMEscan service); host or cells: E. coli BL21-derived host (T7 phage) or HEK-293
Outline: as §1

T6 sequence (P04626 23-1255): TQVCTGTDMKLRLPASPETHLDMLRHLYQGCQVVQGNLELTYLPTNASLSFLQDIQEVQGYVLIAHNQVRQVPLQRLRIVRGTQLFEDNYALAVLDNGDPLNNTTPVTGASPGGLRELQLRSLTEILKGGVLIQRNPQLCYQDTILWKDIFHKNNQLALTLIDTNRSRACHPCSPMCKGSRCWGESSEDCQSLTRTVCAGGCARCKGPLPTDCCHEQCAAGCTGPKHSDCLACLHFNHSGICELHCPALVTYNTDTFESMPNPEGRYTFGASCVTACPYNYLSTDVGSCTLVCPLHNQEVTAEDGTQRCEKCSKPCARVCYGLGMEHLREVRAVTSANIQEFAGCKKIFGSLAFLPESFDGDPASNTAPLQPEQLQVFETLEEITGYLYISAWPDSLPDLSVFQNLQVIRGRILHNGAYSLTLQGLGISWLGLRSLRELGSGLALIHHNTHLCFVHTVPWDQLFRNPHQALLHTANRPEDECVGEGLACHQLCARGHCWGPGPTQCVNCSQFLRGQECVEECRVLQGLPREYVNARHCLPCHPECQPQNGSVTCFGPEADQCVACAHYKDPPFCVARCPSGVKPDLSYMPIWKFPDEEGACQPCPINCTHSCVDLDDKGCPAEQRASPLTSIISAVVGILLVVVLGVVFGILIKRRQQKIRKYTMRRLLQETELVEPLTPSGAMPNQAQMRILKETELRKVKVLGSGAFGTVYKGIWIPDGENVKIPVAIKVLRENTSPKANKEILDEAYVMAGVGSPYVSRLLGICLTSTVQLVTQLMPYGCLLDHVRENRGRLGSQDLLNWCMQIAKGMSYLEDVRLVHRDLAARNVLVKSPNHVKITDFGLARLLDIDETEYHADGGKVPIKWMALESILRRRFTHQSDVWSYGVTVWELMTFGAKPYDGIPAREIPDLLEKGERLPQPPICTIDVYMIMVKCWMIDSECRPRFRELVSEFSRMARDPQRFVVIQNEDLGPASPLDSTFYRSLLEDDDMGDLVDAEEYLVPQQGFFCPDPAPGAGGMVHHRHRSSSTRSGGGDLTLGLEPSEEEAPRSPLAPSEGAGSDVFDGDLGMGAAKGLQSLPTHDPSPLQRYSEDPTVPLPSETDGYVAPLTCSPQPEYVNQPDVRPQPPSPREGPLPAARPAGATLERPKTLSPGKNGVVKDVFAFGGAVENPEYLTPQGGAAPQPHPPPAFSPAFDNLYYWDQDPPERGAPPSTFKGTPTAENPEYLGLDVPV
T2 sequence (P04626 with tags, fused parts or gaps INS775YVMA limits assumed): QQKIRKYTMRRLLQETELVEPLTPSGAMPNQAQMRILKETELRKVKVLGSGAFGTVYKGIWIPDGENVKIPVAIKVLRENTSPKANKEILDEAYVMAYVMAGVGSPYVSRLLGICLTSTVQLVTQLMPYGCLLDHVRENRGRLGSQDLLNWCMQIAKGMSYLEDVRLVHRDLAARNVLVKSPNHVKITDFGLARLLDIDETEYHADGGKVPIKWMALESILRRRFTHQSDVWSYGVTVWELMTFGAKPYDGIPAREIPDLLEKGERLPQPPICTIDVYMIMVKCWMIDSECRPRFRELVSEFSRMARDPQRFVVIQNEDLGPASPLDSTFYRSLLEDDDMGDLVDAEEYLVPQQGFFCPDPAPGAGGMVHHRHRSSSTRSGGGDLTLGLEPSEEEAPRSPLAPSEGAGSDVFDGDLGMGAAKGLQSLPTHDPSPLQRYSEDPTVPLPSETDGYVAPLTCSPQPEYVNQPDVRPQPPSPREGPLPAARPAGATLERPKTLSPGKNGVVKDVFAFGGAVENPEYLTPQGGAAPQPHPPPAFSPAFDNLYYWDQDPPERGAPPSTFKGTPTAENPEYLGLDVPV
T1 sequence (P00533 25-1210): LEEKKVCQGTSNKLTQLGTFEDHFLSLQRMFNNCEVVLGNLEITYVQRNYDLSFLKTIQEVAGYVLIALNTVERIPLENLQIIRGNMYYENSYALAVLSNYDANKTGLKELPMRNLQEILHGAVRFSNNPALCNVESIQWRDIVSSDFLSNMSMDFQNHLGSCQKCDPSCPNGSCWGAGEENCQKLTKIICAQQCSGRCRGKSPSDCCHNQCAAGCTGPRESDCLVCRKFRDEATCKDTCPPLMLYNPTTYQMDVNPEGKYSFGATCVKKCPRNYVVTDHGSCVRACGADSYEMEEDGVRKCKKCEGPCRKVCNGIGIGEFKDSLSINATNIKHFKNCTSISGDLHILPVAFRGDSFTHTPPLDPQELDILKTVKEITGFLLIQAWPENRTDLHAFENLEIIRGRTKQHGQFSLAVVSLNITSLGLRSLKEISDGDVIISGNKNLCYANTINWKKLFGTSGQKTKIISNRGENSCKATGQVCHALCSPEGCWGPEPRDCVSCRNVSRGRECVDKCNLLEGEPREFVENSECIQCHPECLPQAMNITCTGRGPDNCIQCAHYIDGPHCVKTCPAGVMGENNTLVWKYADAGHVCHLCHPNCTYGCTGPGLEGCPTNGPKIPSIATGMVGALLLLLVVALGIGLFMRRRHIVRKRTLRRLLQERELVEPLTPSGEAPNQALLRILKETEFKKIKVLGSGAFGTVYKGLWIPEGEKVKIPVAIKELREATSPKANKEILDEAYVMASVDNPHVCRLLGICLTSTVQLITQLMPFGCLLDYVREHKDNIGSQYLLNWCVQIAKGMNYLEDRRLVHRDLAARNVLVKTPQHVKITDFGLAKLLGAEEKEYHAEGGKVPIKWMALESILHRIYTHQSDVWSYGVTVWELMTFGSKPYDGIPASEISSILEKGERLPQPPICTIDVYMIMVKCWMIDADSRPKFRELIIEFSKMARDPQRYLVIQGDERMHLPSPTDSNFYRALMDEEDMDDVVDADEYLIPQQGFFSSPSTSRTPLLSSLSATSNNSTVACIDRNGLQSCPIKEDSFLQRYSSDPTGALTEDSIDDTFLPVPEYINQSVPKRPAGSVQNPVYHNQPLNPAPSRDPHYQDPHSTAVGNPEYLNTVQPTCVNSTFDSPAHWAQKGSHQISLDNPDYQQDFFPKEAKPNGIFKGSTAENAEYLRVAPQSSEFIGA
T4 sequence (P00533 25-1210 L858R): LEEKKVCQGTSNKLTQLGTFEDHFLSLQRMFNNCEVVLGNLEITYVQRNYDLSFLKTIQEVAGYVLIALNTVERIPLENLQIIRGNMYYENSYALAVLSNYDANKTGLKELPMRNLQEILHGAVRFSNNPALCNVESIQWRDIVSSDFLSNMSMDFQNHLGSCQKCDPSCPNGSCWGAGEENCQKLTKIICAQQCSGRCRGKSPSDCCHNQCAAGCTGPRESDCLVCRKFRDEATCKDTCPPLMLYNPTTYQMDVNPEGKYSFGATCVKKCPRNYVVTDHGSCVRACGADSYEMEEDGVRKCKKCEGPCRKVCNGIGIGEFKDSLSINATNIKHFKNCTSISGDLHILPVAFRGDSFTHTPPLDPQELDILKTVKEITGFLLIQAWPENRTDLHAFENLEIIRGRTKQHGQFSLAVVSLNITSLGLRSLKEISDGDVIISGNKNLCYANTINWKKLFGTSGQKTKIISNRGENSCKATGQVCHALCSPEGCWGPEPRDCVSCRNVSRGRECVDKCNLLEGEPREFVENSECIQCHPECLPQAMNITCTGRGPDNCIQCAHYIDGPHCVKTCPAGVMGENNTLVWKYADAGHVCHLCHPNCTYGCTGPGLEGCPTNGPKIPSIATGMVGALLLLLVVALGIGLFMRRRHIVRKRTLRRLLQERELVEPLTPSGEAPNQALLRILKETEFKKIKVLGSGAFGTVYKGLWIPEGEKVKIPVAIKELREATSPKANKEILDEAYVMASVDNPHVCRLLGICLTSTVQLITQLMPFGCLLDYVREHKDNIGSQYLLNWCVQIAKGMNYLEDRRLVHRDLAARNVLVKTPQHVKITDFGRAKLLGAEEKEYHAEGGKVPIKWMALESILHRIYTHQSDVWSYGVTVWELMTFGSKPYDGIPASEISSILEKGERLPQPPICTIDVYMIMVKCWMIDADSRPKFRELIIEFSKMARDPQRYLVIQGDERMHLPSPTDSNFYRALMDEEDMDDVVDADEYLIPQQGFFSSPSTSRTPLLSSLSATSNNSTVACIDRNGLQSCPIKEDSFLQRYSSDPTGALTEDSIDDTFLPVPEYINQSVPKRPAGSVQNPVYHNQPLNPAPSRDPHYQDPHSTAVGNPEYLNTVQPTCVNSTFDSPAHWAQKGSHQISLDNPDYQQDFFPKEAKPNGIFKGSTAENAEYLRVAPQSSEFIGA
T5 sequence (P15056 whole entry): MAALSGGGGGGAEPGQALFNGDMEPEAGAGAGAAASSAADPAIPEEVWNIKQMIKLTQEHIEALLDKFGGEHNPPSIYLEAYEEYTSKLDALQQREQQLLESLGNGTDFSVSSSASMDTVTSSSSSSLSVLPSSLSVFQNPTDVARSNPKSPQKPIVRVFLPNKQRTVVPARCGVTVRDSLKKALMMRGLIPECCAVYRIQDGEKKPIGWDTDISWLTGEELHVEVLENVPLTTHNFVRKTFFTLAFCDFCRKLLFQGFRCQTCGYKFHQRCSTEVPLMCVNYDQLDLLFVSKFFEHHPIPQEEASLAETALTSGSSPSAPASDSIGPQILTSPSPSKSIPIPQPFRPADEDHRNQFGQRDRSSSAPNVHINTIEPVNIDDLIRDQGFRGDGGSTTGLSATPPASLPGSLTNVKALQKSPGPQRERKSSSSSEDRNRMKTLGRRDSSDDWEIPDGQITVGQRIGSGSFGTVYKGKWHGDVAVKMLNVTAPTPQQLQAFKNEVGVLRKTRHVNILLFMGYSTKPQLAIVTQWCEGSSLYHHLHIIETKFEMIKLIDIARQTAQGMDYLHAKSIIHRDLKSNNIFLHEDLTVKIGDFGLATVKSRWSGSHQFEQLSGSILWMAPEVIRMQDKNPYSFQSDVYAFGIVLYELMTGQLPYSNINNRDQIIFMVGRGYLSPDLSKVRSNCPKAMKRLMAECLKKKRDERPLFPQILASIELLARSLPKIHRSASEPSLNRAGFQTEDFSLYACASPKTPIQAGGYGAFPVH

For `COC(=O)Cc1ccc(Oc2ncnc3sc4c(c23)CC[C@@H](C)C4)cc1` (racemic) [DS39984], the “% inhibition of control activity, PI3K (Eurofins)” value (PI3K) was -6.7 (2.3) % inhibition, the IC50 (EGFR-wt) was 324 ± 50 nM and the IC50 (ErbB2-insYVMA) was < 324 nM and 220 nM. For the same compound, the IC50 (EGFR-L858R/T790M) was > 10 µM, the IC50 (EGFR-L858R) was 2350 ± 397 nM and the inhibition at 20 µM (BRAF) was < 50%. For the same compound, the inhibition at 20 µM (ErbB2; 20 µM, Table 3, read-out: % inhib. at 20 µM, ErbB2 (Eurofins), printed as symbol) was < 50% and the “% inhibition of control activity, ErbB2 (Eurofins)” value (ErbB2; compound 20 µM, mean (SD), above 50% significant, 25-50% weak) was -1.3 (1.8) % inhibition.
